Measurements from patent US20210045385A1, “PYRIDAZINONE-SUBSTITUTED KETOXIMES AS HERBICIDES” (FMC Corporation, priority 2018, published 2021).

What was measured:
Format in all cases: in vivo
[1] = test system: Italian ryegrass (Lolium mutiflorum); assay: Test C preemergence, visual plant response rating; settings: Test C, 0 is no effect, 100 is complete control
Method in brief: (§1)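 Seeds sown in a loam–sand blend got a directed preemergence soil spray; postemergence plants (2–10 cm, one- to two-leaf stage) were sprayed with compound in a non-phytotoxic solvent plus surfactant. Injury was scored visually against untreated controls after about 10 d in a greenhouse on a 0–100 scale (100 = complete control).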

[2] = test system: barnyardgrass (Echinochloa crus-galli); assay: Test C preemergence, visual plant response rating; settings: Test C, 0 is no effect, 100 is complete control
Method in brief: as §1

[3] = test system: foxtail, giant (giant foxtail, Setaria faberi); assay: Test C preemergence, visual plant response rating; settings: Test C, 0 is no effect, 100 is complete control
Method in brief: as §1

kochia (Bassia scoparia) [4] = assay: Test C preemergence, visual plant response rating; settings: Test C, 0 is no effect, 100 is complete control
Method in brief: as §1

[5] = test system: pigweed (Amaranthus retroflexus); assay: Test C preemergence, visual plant response rating; settings: Test C, 0 is no effect, 100 is complete control
Method in brief: as §1

[6] = test system: ragweed (common ragweed, Ambrosia artemisiifolia); assay: Test C preemergence, visual plant response rating; settings: Test C, 0 is no effect, 100 is complete control
Method in brief: as §1

[7] = test system: Italian ryegrass (Lolium mutiflorum); assay: Test C postemergence, visual plant response rating
Method in brief: as §1

[8] = test system: barnyardgrass (Echinochloa crus-galli); assay: Test C postemergence, visual plant response rating
Method in brief: as §1

[9] = test system: blackgrass (Alopecurus myosuroides); assay: Test C postemergence, visual plant response rating
Method in brief: as §1

corn (Zea mays) = assay: Test C postemergence, visual plant response rating
Method in brief: as §1

[10] = test system: foxtail, giant (giant foxtail, Setaria faberi); assay: Test C postemergence, visual plant response rating
Method in brief: as §1

[11] = test system: galium (catchweed bedstraw, Galium aparine); assay: Test C postemergence, visual plant response rating
Method in brief: as §1

kochia (Bassia scoparia) [12] = assay: Test C postemergence, visual plant response rating
Method in brief: as §1

[13] = test system: pigweed (Amaranthus retroflexus); assay: Test C postemergence, visual plant response rating
Method in brief: as §1

[14] = test system: ragweed (common ragweed, Ambrosia artemisiifolia); assay: Test C postemergence, visual plant response rating
Method in brief: as §1

[15] = test system: wheat (Triticum aestivum); assay: Test C postemergence, visual plant response rating
Method in brief: as §1

[16] = test system: barnyardgrass (Echinochloa crus-galli); assay: Test D flooded paddy test, visual plant response rating; settings: 250 g ai/ha, scale 0 to 100 (0 no effect, 100 complete control), 13 to 15 d
Method in brief: (§2)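 Plants grown to the 2-leaf stage; pots flooded to 3 cm above soil and compound applied directly into paddy water, depth held throughout. Kept in greenhouse 13 to 15 d, then rated visually against untreated controls on a 0–100 scale (0 no effect, 100 complete control).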

[17] = test system: duck salad (Heteranthera limosa); assay: as above; settings: 250 g ai/ha, scale 0 to 100 (0 no effect, 100 complete control), 13 to 15 d
Method in brief: as §2

rice (Oryza sativa) = assay: as above; settings: 250 g ai/ha, scale 0 to 100 (0 no effect, 100 complete control), 13 to 15 d
Method in brief: as §2

[18] = test system: sedge umbrella (small-flower umbrella sedge, Cyperus difformis); assay: as above; settings: 250 g ai/ha, scale 0 to 100 (0 no effect, 100 complete control), 13 to 15 d
Method in brief: as §2

[19] = Test C, postemergence, 125 g ai/ha

SMILES | Ryegrass, Italian plant response rating (0 to 100 scale) ([1]; 31 g ai/ha) | Ryegrass, Italian plant response rating (0 to 100 scale) ([1]; 125 g ai/ha) | Barnyardgrass plant response rating (0 to 100 scale) ([2]; 31 g ai/ha) | Barnyardgrass plant response rating (0 to 100 scale) ([2]; 125 g ai/ha) | Foxtail, Giant plant response rating (0 to 100 scale) ([3]; 31 g ai/ha) | Foxtail, Giant plant response rating (0 to 100 scale) ([3]; 125 g ai/ha) | Kochia plant response rating (0 to 100 scale) (kochia (Bassia scoparia) [4]; 31 g ai/ha) | Kochia plant response rating (0 to 100 scale) (kochia (Bassia scoparia) [4]; 125 g ai/ha) | Pigweed plant response rating (0 to 100 scale) ([5]; 31 g ai/ha) | Pigweed plant response rating (0 to 100 scale) ([5]; 125 g ai/ha) | Ragweed plant response rating (0 to 100 scale) ([6]; 31 g ai/ha) | Ragweed plant response rating (0 to 100 scale) ([6]; 125 g ai/ha) | Ryegrass, Italian plant response rating (0 to 100 scale) ([7]; Postemergence, 31 g ai/ha) | Ryegrass, Italian plant response rating (0 to 100 scale) [7, 19] | Barnyardgrass plant response rating (0 to 100 scale) ([8]; Postemergence, 31 g ai/ha) | Barnyardgrass plant response rating (0 to 100 scale) [8, 19] | Blackgrass plant response rating (0 to 100 scale) ([9]; Postemergence, 31 g ai/ha) | Blackgrass plant response rating (0 to 100 scale) [9, 19] | Corn plant response rating (0 to 100 scale) (corn (Zea mays); Postemergence, 31 g ai/ha) | Corn plant response rating (0 to 100 scale) (corn (Zea mays); [19]) | other results
C=CCON=C(c1cc(Cl)cc(Cl)c1Cl)c1c(O)c(C)nn(C)c1=O [Compound 294] | 60 | 100 | 70 | 100 | 70 | 100 | 0 | 50 | 20 | 80 | 70 | 100 | 50 | 100 | 20 | 60 | 0 | 0 | 0 | 10 | Foxtail, Giant plant response rating (0 to 100 scale) ([10]; Postemergence, 31 g ai/ha): 40; Foxtail, Giant plant response rating (0 to 100 scale) [10, 19]: 60; Galium plant response rating (0 to 100 scale) ([11]; Postemergence, 31 g ai/ha): 80; Galium plant response rating (0 to 100 scale) [11, 19]: 100; Kochia plant response rating (0 to 100 scale) (kochia (Bassia scoparia) [12]; Postemergence, 31 g ai/ha): 20; Kochia plant response rating (0 to 100 scale) (kochia (Bassia scoparia) [12]; [19]): 30; Pigweed plant response rating (0 to 100 scale) ([13]; Postemergence, 31 g ai/ha): 20; Pigweed plant response rating (0 to 100 scale) [13, 19]: 20; Ragweed plant response rating (0 to 100 scale) ([14]; Postemergence, 31 g ai/ha): 80; Ragweed plant response rating (0 to 100 scale) [14, 19]: 100; Wheat plant response rating (0 to 100 scale) ([15]; Postemergence, 31 g ai/ha): 0; Wheat plant response rating (0 to 100 scale) [15, 19]: 60; Plant response rating, Barnyardgrass (Flood) [16]: 0; Plant response rating, Ducksalad (Flood) [17]: 0; Plant response rating, Rice (Flood) (rice (Oryza sativa)): 0; Plant response rating, Sedge, Umbrella (Flood) [18]: 0
CO/N=C(/c1c(O)c(C)nn(C)c1=O)c1cccc2cc(Cl)ccc12 [Compound 301] | 0 | 30 | 0 | 40 | 20 | 80 | 0 | 0 | 0 | 20 | 0 | 0 | 0 | 10 | 20 | 40 | 0 | 60 | 0 | 20 | Foxtail, Giant plant response rating (0 to 100 scale) ([10]; Postemergence, 31 g ai/ha): 40; Foxtail, Giant plant response rating (0 to 100 scale) [10, 19]: 70; Galium plant response rating (0 to 100 scale) ([11]; Postemergence, 31 g ai/ha): 70; Galium plant response rating (0 to 100 scale) [11, 19]: 90; Kochia plant response rating (0 to 100 scale) (kochia (Bassia scoparia) [12]; Postemergence, 31 g ai/ha): 0; Kochia plant response rating (0 to 100 scale) (kochia (Bassia scoparia) [12]; [19]): 30; Pigweed plant response rating (0 to 100 scale) ([13]; Postemergence, 31 g ai/ha): 50; Pigweed plant response rating (0 to 100 scale) [13, 19]: 70; Ragweed plant response rating (0 to 100 scale) ([14]; Postemergence, 31 g ai/ha): 10; Ragweed plant response rating (0 to 100 scale) [14, 19]: 30; Wheat plant response rating (0 to 100 scale) ([15]; Postemergence, 31 g ai/ha): 0; Wheat plant response rating (0 to 100 scale) [15, 19]: 0; Plant response rating, Barnyardgrass (Flood) [16]: 0; Plant response rating, Ducksalad (Flood) [17]: 0; Plant response rating, Rice (Flood) (rice (Oryza sativa)): 0; Plant response rating, Sedge, Umbrella (Flood) [18]: 0
